Patent publication US20060205826A1, “Method of using carotenoids in the prevention of cognitive decline and for other neuroprotection functions” (priority 2005, published 2006)

How the values were obtained:
Assay type in all cases: in vivo
[1] = tested on: alloxan diabetic mice; assay: Hyperglycemic status (blood glucose) of alloxan diabetic mice; settings: for glycemia: diabetic mice
Protocol: Male albino mice were used throughout the study, housed in a environmentally regulated room on a dark-light cycle of 12 hours with free access to food and water. Principles of laboratory animal care (NIH publication no. 85-23, revised 1985) were followed, as well as specific Spanish regulations. Animals were made diabetic with a single subcutaneous injection of 200 mg alloxan/kg body weight (66 mg/ml) in 0.1 M citrate buffer, pH 4.5, at day 0 of the experiment. Control mice were injected with the same volume of vehicle also at day 0 of the experiment. Mice were identified as diabetic on the basis of blood glucose levels (higher than 16 mM at least 4 days after alloxan treatment). Animals were divided into subgroups as required by the experiment (control, control+lutein, diabetic, diabetic+lutein, diabetic+insulin, diabetic+insulin+lutein). […] Insulin treated animals were injected daily with 500 mU/g body weight since day 4 until the end of the experiment. Mice were killed by cervical dislocation on day 14, and hippocampus and retina were removed and homogenized in pre-chilled 0.2 M potassium phosphate buffer, pH 7.0. These homogenates were used to assay protein, GPx activity and MDA and GSH concentrations. Samples were kept frozen (−80° C.) until biochemical assays were performed. Blood was taken from the tail vein daily to assay blood glucose levels. Glycated hemoglobin was determined in blood samples obtained by heart puncture immediately before killing the animals.

[2] = tested on: MDA, a lipid peroxidation product; assay: MDA concentration by liquid chromatography in serum, eye and hippocampus of diabetic mice
Protocol: (§1) Male albino mice were used throughout the study, housed in a environmentally regulated room on a dark-light cycle of 12 hours with free access to food and water. Principles of laboratory animal care (NIH publication no. 85-23, revised 1985) were followed, as well as specific Spanish regulations. Animals were made diabetic with a single subcutaneous injection of 200 mg alloxan/kg body weight (66 mg/ml) in 0.1 M citrate buffer, pH 4.5, at day 0 of the experiment. Control mice were injected with the same volume of vehicle also at day 0 of the experiment.
Mice were identified as diabetic on the basis of blood glucose levels (higher than 16 mM at least 4 days after alloxan treatment). Animals were divided into subgroups as required by the experiment (control, control+lutein, diabetic, diabetic+lutein, diabetic+insulin, diabetic+insulin+lutein). […] Insulin treated animals were injected daily with 500 mU/g body weight since day 4 until the end of the experiment. Mice were killed by cervical dislocation on day 14, and hippocampus and retina were removed and homogenized in pre-chilled 0.2 M potassium phosphate buffer, pH 7.0. These homogenates were used to assay protein, GPx activity and MDA and GSH concentrations. Samples were kept frozen (−80° C.) until biochemical assays were performed. Blood was taken from the tail vein daily to assay blood glucose levels. Glycated hemoglobin was determined in blood samples obtained by heart puncture immediately before killing the animals.
MDA, a lipid peroxidation product, concentration was measured by liquid chromatography according to a modification of the method of Richard et al. (1992) as previously described (Romero et al., 1998). Briefly, 0.1 ml of sample (or standard solutions prepared daily from 1,1,3,3-tetramethoxypropane) and 0.75 ml of working solution (thiobarbituric acid 0.37% and perchloric acid 6.4%; 2/1, v/v) were mixed and heated to 95° C. for 1 h. After cooling (10 min in ice water bath), the flocculent precipitate was removed by centrifugation at 3,200×g for 10 min. The supernatant was neutralized and filtered (0.22 μm) prior to injection on an ODS column 5 μm column (250×4.6 mm). Mobile phase consisted in 50 mM phosphate buffer (pH 6.0): methanol (58:42, v/v). Isocratic separation was performed with 1.0 ml/min flow (HPLC System 325, Kontron) and detection at 532 nm (UV/VIS HPLC Detector 332, Kontron). Calibration curves were run daily.

[3] = tested on: GSH; assay: GSH content in hippocampus homogenate of diabetic mice; settings: lutein 0.2 mg/kg p.o. or insulin 500 mU/g s.c. on days 4-13
Protocol: as §1
Mice were identified as diabetic on the basis of blood glucose levels (higher than 16 mM at least 4 days after alloxan treatment). Animals were divided into subgroups as required by the experiment (control, control+lutein, diabetic, diabetic+lutein, diabetic+insulin, diabetic+insulin+lutein). Lutein was administered daily at a dose of 0.2 mg/kg p.o since day 4 after alloxan or citrate buffer injection until the end of the experiment. […] Glycated hemoglobin was determined in blood samples obtained by heart puncture immediately before killing the animals.
The GSH content of eye homogenate was quatitated by the method of Reed et al. (Reed et al., 1980). […] These products are quickly separated by HPLC which allows the quantification of nanomolars levels of GSH.

[4] = lutein 100 mg/kg p.o. or insulin 500 mU/g body weight s.c. on days 4-13

SMILES: CC1=C[C@H](O)CC(C)(C)[C@H]1/C=C/C(C)=C/C=C/C(C)=C/C=C/C=C(C)/C=C/C=C(C)/C=C/C1=C(C)C[C@@H](O)CC1(C)C [Lutein]
- hyperglycemic status ([1]; alloxan diabetic mice, fourteen days after alloxan injection): did not alter
- glycemia ([1]; lutein 0.2 mg/kg p.o. on days 4-13 (hippocampus section)): no effect
- glycemia ([1]; lutein 100 mg/kg p.o. on days 4-13 (retina section)): no effect
- MDA levels in hippocampus ([2]; lutein 0.2 mg/kg p.o. or insulin 500 mU/g body weight s.c. on days 4-13): restored
- MDA levels in hippocampus ([2]; lutein 0.2 mg/kg p.o. or insulin 500 mU/g body weight s.c. on days 4-13, listed as lutein): able to prevent this effect
- MDA levels in ocular tissue [2, 4]: restored
- MDA levels in serum [2, 4]: restored
- MDA levels in ocular tissue ([2]; lutein 100 mg/kg p.o. or insulin 500 mU/g body weight s.c. on days 4-13, listed as lutein): able to prevent this effect
- GSH content in hippocampus homogenate [3]: restored
